US10882901B2, “Methods of treating diabetes by an adipocyte protein 2 specific antibody” (President and Fellows of Harvard College, priority 2009, dated 2021)
“Also recorded” adds a separate entry of the source.

Tests used:
[1] = system: serum aP2; assay: Serum aP2 in mice after isoproterenol-induced lipolysis; assay type: in vivo; conditions: isoproterenol 10 mg/kg, blood 15 min following injection, vs vehicle
Experimental: Blood was collected from mice by tail bleeding after 6 hours of food withdrawal and spun in a microcentrifuge at 13,000 rpm for 30 minutes. Serum aP2 was determined with an ELISA system (Biovendor Inc.). […] To determine aP2 levels during lipolysis, blood was collected from 12 mice at baseline levels. After this, 6 mice were injected with isoproterenol (10 mg/kg body weight) and the other 6 received vehicle control. Blood samples were collected 15 min following injection for aP2 measurement.

[2] = system: differentiated adipocytes; assay: aP2 secretion into conditioned medium of differentiated adipocytes (immunoblot); assay type: cell-based; conditions: for aP2 release from adipocytes treated with inhibitors of classical secretory pathways: conditioned medium blotted with anti-aP2; for lipolysis-induced aP2 secretion from adipocytes: co-treatment of adipocytes in which lipolysis was induced (IBMX/dbcAMP)
Excerpt: HEK 293 cells were maintained in DMEM with 10% fetal bovine serum. FABP-deficient cell lines were established as previously described. Cao, H. et al. Identification of a lipokine, a lipid hormone linking adipose tissue to systemic metabolism. Cell 134, 933-944 (2008). Makowski, L. et al. Lack of macrophage fatty-acid-binding protein aP2 protects mice deficient in apolipoprotein E against atherosclerosis. Nat Med 7, 699-705 (2001). Pre-adipocytes were maintained in DMEM with 10% bovine calf serum and differentiated into adipocytes in DMEM with 10% cosmic calf serum (CCS) using a standard differentiation protocol. To induce lipolysis, differentiated adipocytes were treated with forskolin at 20 nM, or IBMX 1 mM/dibutyryl cAMP 1 mM for one hour. For lipid treatments, 0.25 mM palmitate or stearate was dissolved in DMEM with 10% CCS and added to adipocytes cultured in 12-well plates. At the end of one hour, the medium was replaced with the same lipid-containing medium, and conditioned medium was collected an additional hour later. To collect fat explants, epididymal adipose tissue depots were dissected from mice and rinsed twice in PBS. Adipose tissue samples were then transferred into DMEM with 10% CCS and minced into an average size of 1 to 2 mm. The tissue explants were washed extensively with DMEM and cultured in DMEM containing 10% CCS. Lipolysis was induced in the same manner as adipocytes.
(§1) Tissue protein lysate and conditioned medium from adipocytes were separated on SDS-PAGE gels and stained with Coomassie (Biorad Laboratory), or were detected with immunoblotting using the following antibodies: adiponectin from Santa Cruz Biotechnology, MFG-E8 from Calbiochem, caveolin-1 from BD Bioscience, AKT from Cell Signaling Technology. Flag-tagged aP2 was immunoprecipated using 4 ml of conditioned medium from transfected HEK 293 cells after incubation with 30 μl Flag agarose beads (Sigma) overnight at 4° C. Proteins bound to agarose beads were eluted with SDS loading buffer and resolved with SDS-PAGE.

[3] = system: differentiated adipocytes; assay: Adiponectin secretion into conditioned medium of differentiated adipocytes (immunoblot); assay type: cell-based; conditions: inhibitors of classical secretory pathways
Excerpt: FIG. 7A is a photograph of an electrophonetic gel showing non-classical secretion of aP2. Conditioned medium from adipocytes treated with control, brefeldin A (Bref A) or monensin (Mon) were blotted using anti-aP2 or adiponectin antibodies. Whole cell lysate (WCL) was also blotted using anti-aP2 antibody.
as §1

[4] = Serum aP2 ELISA after recombinant aP2 injection or infusion; assay type: in vivo, mice
Experimental: FIG. 11 is a bar graph showing serum aP2 in WT mice after recombinant aP2 injection. Serum samples of mice were collected at indicated time points after aP2 injection and aP2 levels were determined with an aP2 ELISA.
FIG. 13 is a line graph showing Serum aP2 in FABP-deficient (DKO) mice during aP2 infusion. Serum samples were collected from FABP-deficient mice during aP2 infusion at indicated time points. Serum aP2 levels were determined with an aP2 ELISA.
Blood was collected from mice by tail bleeding after 6 hours of food withdrawal and spun in a microcentrifuge at 13,000 rpm for 30 minutes. Serum aP2 was determined with an ELISA system (Biovendor Inc.). To monitor nutritional regulation of serum aP2, blood samples were collected from mice immediately prior to the start of dark cycle after which animals were placed in cages without food. After 24 hours of fasting, a second set of blood samples were collected and food was provided. Final blood sampling was performed 4 hours after re-feeding. To determine aP2 levels during lipolysis, blood was collected from 12 mice at baseline levels. After this, 6 mice were injected with isoproterenol (10 mg/kg body weight) and the other 6 received vehicle control. Blood samples were collected 15 min following injection for aP2 measurement. […]

[5] = system: FABP-deficient mice; assay: Hyperinsulinemic-euglycemic clamp in FABP-deficient mice infused with recombinant aP2; assay type: in vivo
Experimental: The mice were fasted overnight before the experiments and were infused with Intralipid at 3 ml/kg/h (Abbott) and heparin (6 U/h) for 5 hours. […] Mice were catheterized as described above. Hyperinsulinemic-euglycemic clamps were performed by a modification of a reported procedure^15. After an overnight fast, HPLC purified [3H]-glucose (0.05 μCi/min; PerkinElmer Life and Analytical Sciences, Boston, Mass.) was infused during the 2-h basal period, and blood samples were collected at the end to estimate the rate of basal hepatic glucose production. After the basal period, a 120-min hyperinsulinemic-euglycemic clamp was conducted with a primed-continuous infusion of human insulin (Humulin R; Eli Lilly, Indianapolis, Ind.) at a rate of 12.5 mU/kg/min. Blood samples were collected at 20-min intervals for the immediate measurement of plasma glucose concentrations, and 25% glucose was infused at variable rates to maintain plasma glucose at basal concentrations. Insulin-stimulated whole-body glucose turnover was estimated with a continuous infusion of [3-^3H]-glucose throughout the clamps (0.1 μCi/min). All infusions were performed using flow-controlled microdialysis pumps (CMA/Microdialysis, North Chelmsford, Mass.). Blood samples were taken at 80, 85, 90, 100, 110, and 120 min after the start of clamps for the determination of plasma [^3H]-glucose, and ^3H2O concentrations. […]

[6] = system: WT mice maintained on regular chow diet; assay: Glucose tolerance test of regular diet mice injected with recombinant aP2; assay type: in vivo; conditions: lean WT mice, recombinant aP2 100 μg twice a day for two weeks, vs control Gus protein
Excerpt: FIG. 6I is a line graph showing glucose tolerance test of mice on regular diet injected with control Gus protein or recombinant aP2 for two weeks. *, p<0.05. Mice with homozygous null mutations in aP2 and mall were backcrossed more than 12 generations into a C57BL/6J genetic background. Mice were maintained on regular chow diet (RD) or placed on high-fat diet (Research Diets, Inc) at 4 weeks of age for 20 weeks to induce dietary obesity. Leptin-deficient (ob/ob) mice were purchased from the Jackson laboratory. All mice were maintained on a 12-hour light and dark cycle. Glucose and insulin tolerance tests using standard methods. Recombinant aP2 or control Gus protein with 6×His tag was produced in E. coli and purified with B-PER 6×His Spin Purification Kit (Pierce Biotechnology, Inc). Proteins were further purified by removing endotoxin with a commercial system (Lonza Inc.). 100 μg of control or aP2 protein was injected into WT mice maintained on regular chow diet twice a day for two weeks. The rabbit polyclonal antibody against mouse aP2 was produced using recombinant, full-length aP2 protein and the antibody was purified from serum of the final bleed using the NAb™ Spin system (Pierce Biotechnology, Inc). Pre-immune serum was purified similarly and used as control. […]

[7] = system: PEPCK and G6P; assay: Liver gluconeogenic gene expression by quantitative real-time PCR; assay type: in vivo; conditions: WT mice infused with recombinant aP2 vs control protein
Experimental: FIG. 6K is a bar graph showing gene expression in livers of WT mice infused with control protein or recombinant aP2 (top panel) or mice on HFD injected with control or aP2 antibody (bottom panel). PEPCK and G6P in liver tissues were analyzed with quantitative real-time PCR. *, p<0.05.
Total RNA was isolated from liver tissues using Trizol reagent (Invitrogen). Reverse transcription was carried out with a superscript first-strand cDNA synthesis system (Applied Biosystems Inc.) using 1 μg of RNA. Quantitative, real-time RT-PCR was performed on a PCR thermal cycler (Applied Biosystems Inc.). The PCR program was: 2 min 30 s at 95° C. for enzyme activation, 40 cycles of 15 s at 95° C., 30 s at 58° C., and 1 min at 72° C. for extension. Melting curve analysis was performed to confirm the real-time PCR products. All quantitations were normalized to the 1 8S rRNA. Primer sequences used were the following: PEPCK, forward: […](SEQ ID NO: 5), reverse: CAGCAACTGCCCGTACTCC (SEQ ID NO: 6); G6P, forward: […] (SEQ ID NO:7), reverse: […] (SEQ ID NO: 8).

## CC(C)NCC(O)c1ccc(O)c(O)c1 (centres unmarked) [isoproterenol]
[1]
  serum aP2 levels: rapid increase in serum aP2 levels

## CC[C@@]1([C@@H]2O[C@@H]([C@H]3O[C@@](O)(CO)[C@H](C)C[C@@H]3C)C[C@@H]2C)CC[C@H]([C@]2(C)CC[C@]3(C[C@H](O)[C@@H](C)[C@@H]([C@@H](C)[C@@H](OC)[C@H](C)C(=O)O)O3)O2)O1 [monensin]
[2]
  aP2 release from adipocytes treated with inhibitors of classical secretory pathways: neither had any inhibitory effect
[3]
  adiponectin secretion from adipocytes: efficiently blocked adiponectin secretion

## C[C@H]1CCC/C=C/[C@@H]2C[C@H](O)C[C@H]2[C@H](O)/C=C/C(=O)O1 [brefeldin A]
[2]
  aP2 release from adipocytes treated with inhibitors of classical secretory pathways: neither had any inhibitory effect
[3]
  adiponectin secretion from adipocytes: efficiently blocked adiponectin secretion

## insulin
[2]
  lipolysis-induced aP2 secretion from adipocytes: aP2 secretion was suppressed

## diethylumbelliferyl phosphate [DEUP]
[2]
  lipolysis-induced aP2 secretion from adipocytes: completely blocked lipolysis-induced aP2 secretion

B1: recombinant aP2: Recombinant aP2 with 6×His tag produced in E. coli, purified, endotoxin removed (protein)
chain: CDAFVGTWKLVSSENFDDYMKEVGVGFATRKVAGMAKPNMIISVNGDLVTIRSESTFKNTEISFKLGVEFDEITADDRKVKSIITLDGGALVQVQKWDGKSTTIKRKRDGDKLVVECVMKGVTSTRVYERA
[4]; FABP-deficient mice, infusion 8 μg/kg/min
  serum aP2 levels during aP2 infusion: rapid increase in serum aP2 levels
[4]; WT mice on regular chow diet, injection
  serum aP2 levels after a single dose of recombinant aP2: increased levels of serum aP2 that lasted for several hours
[5]; FABP-deficient mice infused with recombinant aP2
  glucose metabolism rates: absence of alterations in glucose metabolism rates
[5]; FABP-deficient mice infused with recombinant aP2 for 4 hours, vs control protein
  basal hepatic glucose production (bHGP): significantly increased basal hepatic glucose production
[6]
  glucose tolerance in glucose tolerance test: mild glucose intolerance; also recorded: developed glucose intolerance
[7]
  G6P gene expression in liver: significantly upregulated
  PEPCK gene expression in liver: significantly upregulated
